Assay results reported in patent US9629822B2, “Flavonoid based antiviral targets” (UNIVERSITY OF CENTRAL FLORIDA RESEARCH FOUNDATION, INC., priority 2012, dated 2017).
Read-outs that look alike come from different tables or passages of the source.

How the values were obtained:
HIV-1 BaL = assay: Anti-HIV assay (luciferase, HIV-1 BaL infection); assay type: cell-based
Method: Assays were performed below in accordance with the procedures set forth in The Journal of Immunology, 2006, 176, pp. 6900-905; AIDS Research and Human Retroviruses, 2004, 20:11, pp. 1157-1665.^32,33 Cells were treated with 2 ng/mL p24 of HIV-1 BaL administered; MOI approx 0.02 (see refs 32, 33). Cells were treated with 2 ng/mL p24 of HIV-1 BaL administered; MOI approx 0.02 (see refs 32, 33).

[1] = TZMbI assay for cell safety (cell viability and growth, CytoTox Glo); details: human, TZMbI cells, read-out: % decrease in viability compared to 0.1% DMSO vehicle based on viable cell luminescence
Method: Assays were performed below in accordance with the procedures set forth in The Journal of Immunology, 2006, 176, pp. 6900-905; AIDS Research and Human Retroviruses, 2004, 20:11, pp. 1157-1665.^32,33 TZMbI assays for cell safety were performed to identify potential anti-viral compounds. TZMbI assays for cell safety were performed to identify potential anti-viral compounds per the methods.

US28 receptor = target: T1, US28 receptor (Human cytomegalovirus, UniProt P69332); assay: PathDetect trans Elk1 luciferase reporter gene assay in US28-transfected 293T HEK cells; assay type: cell-based, Human Cytomegalovirus (HCMV); details: for EC50: 293T HEK cells transiently expressing US28, Elk1 reporter; for Efficacy(%): maximum intrinsic activity from dose-response curve; for Efficacy(%) / Emax: negative = inverse agonism; for Emax: read-out: Efficacy(%), maximum intrinsic activity from dose-response curve; for type of activity on the US28 receptor (agonist / inverse agonist / none), in words: Elk1 reporter, US28-transfected HEK cells
T1 construct: expressed in transfected cells; host or cells: HEK 293T cells, transiently transfected
T1 sequence (P69332 whole entry): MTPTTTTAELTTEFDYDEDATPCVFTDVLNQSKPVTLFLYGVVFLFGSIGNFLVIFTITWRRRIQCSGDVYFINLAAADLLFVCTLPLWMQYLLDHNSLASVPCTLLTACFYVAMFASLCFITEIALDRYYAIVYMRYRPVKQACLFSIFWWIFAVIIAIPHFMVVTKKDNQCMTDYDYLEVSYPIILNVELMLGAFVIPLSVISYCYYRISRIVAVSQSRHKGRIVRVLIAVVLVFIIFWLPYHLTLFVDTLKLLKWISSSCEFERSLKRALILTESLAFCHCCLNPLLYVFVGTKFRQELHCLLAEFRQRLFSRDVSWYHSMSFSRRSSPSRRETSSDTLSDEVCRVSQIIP
Source text: Having generated a homologous series of chalcones and flavones, their ability to interact with the US28 receptor in human embryonic kidney (HEK) cells was investigated using an Elk-1 gene reporter assay (FIG. 2). HEK cells were transfected with either an empty vector (i.e., mock cells) or with a vector carrying US 28. These matched HEK cells provided a means to evaluate off-target effects as well as innate drug toxicity. As many of the flavonoid drugs were not water-soluble, all drug stock solutions were made in 100% dimethylsulfoxide (DMSO). The final DMSO concentration for each cell-based experiment, however, was 1% DMSO. To account for the presence of DMSO, 1% DMSO controls were run in parallel. […] values of the homologous series were also determined in Chinese hamster ovary (CHO) cells in order to assess the relative toxicities of each member of the series in a different cell line (see Table 1).
Interaction with the US28 receptor was measured by a decrease in luminescence using a firefly (Photinus pyralis) luciferase-based PathDetect Elk1 gene reporter assay (FIG. 2).^23,24 This assay assessed the modulation of US28-mediated activation of mitogen-activated protein kinase (MAPK) signaling pathways (results are shown in Table 1). […] Such compounds which reduce MAPK signaling will have direct utility in the treatment of proliferative disorders including but not limited cancer.
After transfection the US28 is expressed and activates MAPK. The MAPK phosphorylates the activator domain of the GAL4dbd/Elk1 fusion protein, and causes its dimerization. The dimer then binds to the GAL4 UAS region of the reporter gene and allows for luciferase transcription. The luciferase mRNA is then translated and the luciferase protein is detected via luminescence by the use of the Bright-Glo reagent.
(§1) The efficacy of each compound on the US28 receptor was investigated in luciferase based reporter gene assay PathDetect trans Elk1 (Agilent, Stratagene)^23 as described previously.^13 Briefly, the human embryonic kidney (HEK) 293T cells were transiently-transfected with 0.1 μg Elk1, 5 μg Luc, and 5 μg of US28 vector or empty pcDNA3 vector (mock cells). Five hours after transfection, the cells were washed with DMEM containing 1% FBS, harvested, seeded in a white half-area 96-well plate (20,000 cells/well) and incubated with the indicated concentrations of test compounds. The incubation buffer consisted of DMEM, 1% FBS, 2 mM L-glutamine, 1% penicillin-streptomycin and 1% DMSO. The cells were incubated at 37° C. in the humid atmosphere with 5% CO2 for an additional 20-24 hours. The luciferase substrate BrightGlo (Promega) was used according to the manufacturer's instruction. The luminescence intensity was acquired using microplate reader Victor3V (Perkin-Elmer). The basal luminescence of mock transfected cells was approximately 500 RLU and the basal luminescence of US28-transfected cells was 4-5-fold higher (2000-2500 RLU). As the inhibitors gave differential responses in terms of their ability to reduce US 28 mediated signaling, their relative EC50 values were determined by dosing the US-28 transfected HEK cells with increasing concentrations of each compound. In this case, the EC50 value is the concentration of the compound needed to provoke a response halfway between the compound's maximal response (change in luminescence) and the no-compound control in the same US-28 transfected cell line. A plot of relative luminescence versus log of the compound concentration provided a dose-response curve from which the % efficacy was derived via non-linear regression methods using the algorithms in PRISM 5.0 (GraphPad Software, San Diego, Calif.).

CHO cells = assay: CHO cell toxicity, MTS assay, 48 h; assay type: cell-based, Chinese hamster; details: Cricetulus griseus, CHO, 37° C., MTS reagent, read-out: CHO 48 h IC50 value
Method: In each case, the chalcone system 8 was more toxic than the corresponding ring-closed system, 9.
The CHO assay was conducted to assess the general toxicity of each flavonoid drug. Briefly, cell growth was assayed in sterile 96-well microtiter plates (Costar 3599, Corning, N.Y., USA) in the presence of each drug. Experiments were conducted in triplicate. CHO cells were plated at 10,000 cells/mL. Drug solutions were prepared in 100% DMSO and dosed so that the final DMSO concentration was <1%. For example, 1 μL of drug solution was added to the CHO cells plated in each well in 100 μL of media. Drug additions occurred after an initial overnight incubation of CHO cells in each well. After drug was added, the cells were incubated in 5% CO2 for 48 h at 37° C. The MTS reagent (Promega Cell Titer 96 Aqueous non-radioactive cell proliferation reagent) was added (20 μL) and the CHO cells were incubated for an additional 4h and then absorbance at 490 nm was measured on a BioTek Synergy MX plate reader. […] IC50 values were determined from the corresponding plot of relative absorbance at 490 nm vs drug concentration.

[2] = tested on: mock transfected 293T HEK cells; assay: PathDetect Elk1 luminescence in mock transfected (empty pcDNA3 vector) 293T HEK cells, off-target effect; assay type: cell-based, human; details: 10 μM vs 1% DMSO control, Equation 1; for activation at 10 µM: Homo sapiens, read-out: Effect(%) on mock cells with each drug at 10 μM
Method: As a control, the empty pcDNA3 plasmid vector and the components of PathDetect system were also used for mock transfection of 293T HEK cells. Controls containing 1% DMSO were run in parallel. The relative luminescence results found with mock transfected 293T HEK cells treated with 10 μM drug and the untreated 1% DMSO control were compared via the following Equation 1. % Effect on mock cells=(100%×(mock cell luminescence/DMSO control luminescence))−100% Equation (1)
This equation was derived in order to assess the net effect each compound had on non-US28 containing HEK cells transfected via the same protocol. These control experiments were critical as they provided a method to address off target effects such as compound toxicity, which could give rise to false positives in the PathDetect assay.
Compounds, which had no off-target effects, gave nearly identical luminescence values in both the mock cells and the 1% DMSO control (i.e., a mock cell luminescence/DMSO control luminescence ratio of 1) and a net effect of 0% via Equation 1 (e.g., 9j: 0% in Table 1). In contrast, compounds that were stimulatory to the treated HEK cells gave higher mock cell luminescence than the DMSO control, a ratio >1, and a net positive value in Equation 1 for the % effect on mock cells (e.g., 8f: 290%). On the other hand, compounds that were intrinsically toxic gave lower luminescence in the treated mock cells than the DMSO control, a ratio below 1, and a net negative value for the % effect on mock cells (e.g., 8d: ˜42%).
as §1

[3] = 10 μM, Experiment 1B, 2 ng/mL p24 HIV-1 BaL
[4] = Human immunodeficiency virus 1, BAL, 10 μM, Experiment 1B, 2 ng/mL p24 HIV-1 BaL
[5] = EC50 (μM), NE = no effect when tested at 10 μM of compound
[6] = NE = no effect when tested at 10 μM of compound

| Compound | RLU (relative luciferase units) (HIV-1 BaL; [3]) | inhibition at 10 µM (HIV-1 BaL; [4]) | melting point | cytotoxicity at 10 μM ([1]; Experiment 1A) | EC50 (US28 receptor; [5]) | Efficacy(%) (US28 receptor) | EC50 (US28 receptor; pEC50 ± SEM) | Emax (US28 receptor) | IC50 (CHO cells) | activation at 10 µM [2] | type of activity on the US28 receptor (agonist / inverse agonist / none), in words (US28 receptor) | EC50 (US28 receptor; [6]) | further results |
| --- | --- | --- | --- | --- | --- | --- | --- | --- | --- | --- | --- | --- | --- |
| COc1cc(Br)cc(/C=C/C(=O)c2ccccc2O)c1OC [Compound 8d, (E)-3-(5-bromo-2,3-dimethoxyphenyl)-1-(2-hydroxyphenyl)prop-2-en-1-one] | 134.6 RLU | 85.8% | 122 to 124 °C | 72.9% | 6.7 µM | ~52% | 6.61 µM | ~52% | 7.2 ± 0.4 µM | – | – | – | – |
| COc1ccc(Br)cc1/C=C/C(=O)c1c(O)cccc1OC [Compound 8f, (E)-3-(5-bromo-2-methoxyphenyl)-1-(2-hydroxy-6-methoxyphenyl)prop-2-en-1-one] | 45.9 RLU | 95.1% | – | 91.3% | 6 µM | ~95% | – | ~95% | 6.1 ± 0.8 µM | 290% | – | – | Effect(%) on mock cells with each drug at 10 μM [2]: 290% |
| COc1ccc(Cl)cc1/C=C/C(=O)c1ccccc1O [Compound 8h, (E)-3-(5-chloro-2-methoxyphenyl)-1-(2-hydroxyphenyl)prop-2-en-1-one] | 33.8 RLU | 96.4% | 81 to 82 °C | 98.9% | 7.8 µM | ~58% | – | ~58% | 8.4 ± 0.6 µM | – | – | – | – |
| CCOc1ccc(Br)cc1-c1oc2ccccc2c(=O)c1O [Compound 9c, 2-(5-Bromo-2-ethoxyphenyl)-3-hydroxy-4H-chromen-4-one] | 727.6 RLU | 22.3% | 149 to 155 °C | -8.9% | 0.8 µM | – | 0.832 µM | – | 13.5 ± 1.3 µM | – | inhibited US28 activity | – | RLU (relative luciferase units) (HIV-1 BaL; 2.5 μM, Experiment 2B): 30.81 RLU; RLU (relative luciferase units) (HIV-1 BaL; 5 μM, Experiment 2B): 33.63 RLU; RLU (relative luciferase units) (HIV-1 BaL; 10 μM, Experiment 2B): 49.29 RLU; RLU (relative luciferase units) (HIV-1 BaL; 20 μM, Experiment 2B): 69.09 RLU; RLU (relative luciferase units) (HIV-1 BaL; 40 μM, Experiment 2B): 88.45 RLU; inhibition at 2.5 µM (HIV-1 BaL; Human immunodeficiency virus 1, BAL, 2.5 μM, Experiment 2B): -6.23%; inhibition at 5 µM (HIV-1 BaL; Human immunodeficiency virus 1, BAL, 5 μM, Experiment 2B): -0.19%; inhibition at 10 µM (HIV-1 BaL; Human immunodeficiency virus 1, BAL, 10 μM, Experiment 2B): 0.1%; inhibition at 20 µM (HIV-1 BaL; Human immunodeficiency virus 1, BAL, 20 μM, Experiment 2B): 14.8%; inhibition at 40 µM (HIV-1 BaL; Human immunodeficiency virus 1, BAL, 40 μM, Experiment 2B): 64.2%; cytotoxicity at 2.5 μM ([1]; 2.5 μM, Experiment 2A): -6.23%; cytotoxicity at 5 μM ([1]; 5 μM, Experiment 2A): -0.19%; cytotoxicity at 10 μM ([1]; Experiment 2A): 0.1%; cytotoxicity at 20 μM ([1]; 20 μM, Experiment 2A): 14.8%; cytotoxicity at 40 μM ([1]; 40 μM, Experiment 2A): 64.2% |
| COc1ccccc1-c1cc(=O)c2ccccc2o1 [Compound 11c, 2-(2-Methoxyphenyl)-4H-chromen-4-one] | 235.6 RLU | 74.8% | – | 39.5% | > 10 µM | – | – | – | 64.8 ± 8.1 µM | 3% | inactive ligand | > 10 µM | – |
| COc1ccc(Br)cc1C1CC(=O)c2ccccc2O1 (centres unmarked) [Compound 13b, 2-(5-Bromo-2-methoxyphenyl)chroman-4-one] | 884.5 RLU | 2.8% | – | -9.1% | > 10 µM | – | – | – | 67.9 ± 9.3 µM | -5% | did not have any significant effect | > 10 µM | – |
